Values after ≈ are worked out from the molar mass of the structure shown. Non-standard residues stand in square brackets, D forms with d. Residues, ends and D or L forms follow the SMILES beside them. β3hY = N[C@H](CC(=O)O)Cc1ccc(O)cc1; NMeS = CN[C@@H](CO)C(=O)O; β3hS = N[C@@H](CO)CC(=O)O; Ava = NCCCCC(=O)O; GABA = NCCCC(=O)O; Sar = CNCC(=O)O
System: E. coli ATCC 11775
Assay type: cell-based
Settings: ATCC 11775, 24 h
Procedure: Lyophilized peptides were dissolved in NB to give a concentration of 400 μM and filtered using 0.22 μm filter discs (Millex GV, Durapore). An overnight culture in NB was adjusted to 5×10^6 CFU/mL and inoculated into the micro titer plate wells (10 μL) containing each 100 μL of a serial 2-fold dilution (200-0.4 μM) of the tested peptide in NB. Plates were incubated while gently shaking at 37 ° C. for 24 h. Next, 80 μL suspension of each well was transported into a flat-bottom 96-well plate (Costar). The absorbance was measured at 600 nm using a μQuant micro plate spectrophotometer (Bio-Tek Instruments). All peptides were measured in quadruplo. The peptide with sequence […] (see Otvos Jr, […]; Otvos, B. I.; Hoffmann, […].; Wade, […].; Bulet, P. Protein Sci. 2000, 9, 742) was used as negative control.

Row | Compound | MIC [µM]
1 | CC[C@H](C)[C@H](NC(=O)[C@@H]1CCCN1C(=O)[C@H](CCCNC(=N)N)NC(=O)[C@@H]1CCCN1C(=O)[C@H](Cc1cnc[nH]1)NC(=O)[C@H](CO)NC(=O)[C@@H](NC(=O)[C@@H]1CCCN1C(=O)[C@H](CCCNC(=N)N)NC(=O)[C@@H]1CCCN1C(=O)[C@H](CO)NC(=O)[C@H](Cc1ccc(O)cc1)NC(=O)[C@@H]1CCCN1C(=O)[C@H](CCCNC(=N)N)NC(=O)[C@@H]1CCCN1C(=O)[C@H](CCCCN)NC(=O)CN)[C@@H](C)O)C(=O)N[C@@H](CCCNC(=N)N)C(=O)N[C@H](C(=O)O)C(C)C [Peptide 1, GKPRP YSPRP TSHPR PIRV, reference compound] (H-GKPRPYSPRPTSHPRPIRV-OH) | 6.3 (≈ 13.9 µg/mL)
2 | CC[C@H](C)[C@H](NC(=O)[C@@H]1CCCN1C(=O)[C@H](CCCNC(=N)N)NC(=O)[C@@H]1CCCN1C(=O)[C@H](Cc1c[nH]cn1)NC(=O)[C@H](CO)NC(=O)[C@@H](NC(=O)[C@@H]1CCCN1C(=O)[C@H](CCCNC(=N)N)NC(=O)[C@@H]1CCCN1C(=O)[C@H](CO)N(C)C(=O)[C@H](Cc1ccc(O)cc1)NC(=O)[C@@H]1CCCN1C(=O)[C@H](CCCNC(=N)N)NC(=O)[C@@H]1CCCN1C(=O)[C@H](CCCCN)NC(=O)CN)[C@@H](C)O)C(=O)N[C@@H](CCCNC(=N)N)C(=O)N[C@H](C(=O)O)C(C)C [Peptide 2, GKPRP Y^MeSPRP TSHPR PIRV] (H-GKPRPY[NMeS]PRPTSHPRPIRV-OH) | 25 (≈ 55.3 µg/mL)
3 | CC[C@H](C)[C@H](NC(=O)[C@@H]1CCCN1C(=O)[C@H](CCCNC(=N)N)NC(=O)[C@@H]1CCCN1C(=O)[C@H](Cc1c[nH]cn1)NC(=O)[C@H](CO)NC(=O)[C@@H](NC(=O)[C@@H]1CCCN1C(=O)[C@H](CCCNC(=N)N)NC(=O)[C@@H]1CCCN1C(=O)[C@H](CO)NC(=O)[C@H](Cc1ccccc1)NC(=O)[C@@H]1CCCN1C(=O)[C@H](CCCNC(=N)N)NC(=O)[C@@H]1CCCN1C(=O)[C@H](CCCCN)NC(=O)CN)[C@@H](C)O)C(=O)N[C@@H](CCCNC(=N)N)C(=O)N[C@H](C(=O)O)C(C)C [Peptide 3, GKPRP FSPRP TSHPR PIRV] (H-GKPRPFSPRPTSHPRPIRV-OH; N-terminus assumed) | 3.1 (≈ 6.77 µg/mL)
4 | CC[C@H](C)[C@H](NC(=O)[C@@H]1CCCN1C(=O)[C@H](CCCNC(=N)N)NC(=O)[C@@H]1CCCN1C(=O)[C@H](Cc1c[nH]cn1)NC(=O)[C@H](CO)NC(=O)[C@@H](NC(=O)[C@@H]1CCCN1C(=O)[C@H](CCCNC(=N)N)NC(=O)[C@@H]1CCCN1C(=O)[C@H](CO)NC(=O)C[C@H](Cc1ccc(O)cc1)NC(=O)[C@@H]1CCCN1C(=O)[C@H](CCCNC(=N)N)NC(=O)[C@@H]1CCCN1C(=O)[C@H](CCCCN)NC(=O)CN)[C@@H](C)O)C(=O)N[C@@H](CCCNC(=N)N)C(=O)N[C@H](C(=O)O)C(C)C [Peptide 9, GKPRP βYSPRP TSHPR PIRV] (H-GKPRP[β3hY]SPRPTSHPRPIRV-OH) | 3.1 (≈ 6.86 µg/mL)
5 | CC[C@H](C)[C@H](NC(=O)[C@@H]1CCCN1C(=O)[C@H](CCCNC(=N)N)NC(=O)[C@@H]1CCCN1C(=O)[C@H](Cc1c[nH]cn1)NC(=O)[C@H](CO)NC(=O)[C@@H](NC(=O)[C@@H]1CCCN1C(=O)[C@H](CCCNC(=N)N)NC(=O)[C@@H]1CCCN1C(=O)C[C@H](CO)NC(=O)C[C@H](Cc1ccc(O)cc1)NC(=O)[C@@H]1CCCN1C(=O)[C@H](CCCNC(=N)N)NC(=O)[C@@H]1CCCN1C(=O)[C@H](CCCCN)NC(=O)CN)[C@@H](C)O)C(=O)N[C@@H](CCCNC(=N)N)C(=O)N[C@H](C(=O)O)C(C)C [Peptide 11, GKPRP βYβSPRP TSHPR PIRV] (H-GKPRP[β3hY][β3hS]PRPTSHPRPIRV-OH) | 12.5 (≈ 27.8 µg/mL)

Second part, the compound after the results:

Row | MIC [µM] | Compound
6 | 3.1 (≈ 6.81 µg/mL) | CC[C@H](C)[C@H](NC(=O)[C@@H]1CCCN1C(=O)[C@H](CCCNC(=N)N)NC(=O)[C@@H]1CCCN1C(=O)[C@H](Cc1c[nH]cn1)NC(=O)[C@H](CO)NC(=O)[C@@H](NC(=O)[C@@H]1CCCN1C(=O)[C@H](CCCNC(=N)N)NC(=O)[C@@H]1CCCN1C(=O)[C@@H](NC(=O)[C@H](Cc1ccccc1)NC(=O)[C@@H]1CCCN1C(=O)[C@H](CCCNC(=N)N)NC(=O)[C@@H]1CCCN1C(=O)[C@H](CCCCN)NC(=O)CN)[C@@H](C)O)[C@@H](C)O)C(=O)N[C@@H](CCCNC(=N)N)C(=O)N[C@H](C(=O)O)C(C)C [Peptide 5, GKPRP FTPRP TSHPR PIRV] (H-GKPRPFTPRPTSHPRPIRV-OH; N-terminus assumed)
7 | 6.3 (≈ 13.9 µg/mL) | CC[C@H](C)[C@H](NC(=O)[C@@H]1CCCN1C(=O)[C@H](CCCNC(=N)N)NC(=O)[C@@H]1CCCN1C(=O)[C@H](Cc1c[nH]cn1)NC(=O)[C@H](CO)NC(=O)[C@@H](NC(=O)[C@@H]1CCCN1C(=O)[C@H](CCCNC(=N)N)NC(=O)[C@@H]1CCCN1C(=O)[C@H](CO)NC(=O)[C@@H](Cc1ccc(O)cc1)NC(=O)[C@@H]1CCCN1C(=O)[C@H](CCCNC(=N)N)NC(=O)[C@@H]1CCCN1C(=O)[C@H](CCCCN)NC(=O)CN)[C@@H](C)O)C(=O)N[C@@H](CCCNC(=N)N)C(=O)N[C@H](C(=O)O)C(C)C [Peptide 6, GKPRP DYSPRP TSHPR PIRV] (H-GKPRP[dY]SPRPTSHPRPIRV-OH; N-terminus assumed)
8 | 3.1 (≈ 6.86 µg/mL) | CC[C@H](C)[C@H](NC(=O)[C@@H]1CCCN1C(=O)[C@H](CCCNC(=N)N)NC(=O)[C@@H]1CCCN1C(=O)[C@H](Cc1c[nH]cn1)NC(=O)[C@H](CO)NC(=O)[C@@H](NC(=O)[C@@H]1CCCN1C(=O)[C@H](CCCNC(=N)N)NC(=O)[C@@H]1CCCN1C(=O)C[C@H](CO)NC(=O)[C@H](Cc1ccc(O)cc1)NC(=O)[C@@H]1CCCN1C(=O)[C@H](CCCNC(=N)N)NC(=O)[C@@H]1CCCN1C(=O)[C@H](CCCCN)NC(=O)CN)[C@@H](C)O)C(=O)N[C@@H](CCCNC(=N)N)C(=O)N[C@H](C(=O)O)C(C)C [Peptide 10, GKPRP YβSPRP TSHPR PIRV] (H-GKPRPY[β3hS]PRPTSHPRPIRV-OH)
9 | 6.3 (≈ 14.2 µg/mL) | CC[C@H](C)[C@H](NC(=O)[C@@H]1CCCN1C(=O)[C@H](CCCNC(=N)N)NC(=O)[C@@H]1CCCN1C(=O)[C@H](Cc1c[nH]cn1)NC(=O)[C@H](CO)NC(=O)[C@@H](NC(=O)[C@@H]1CCCN1C(=O)[C@H](CCCNC(=N)N)NC(=O)[C@@H]1CCCN1C(=O)[C@@H](NC(=O)[C@H](Cc1ccc(O)cc1)NC(=O)[C@@H]1CCCN1C(=O)[C@H](CCCNC(=N)N)NC(=O)[C@@H]1CCCN1C(=O)[C@H](CCCCN)NC(=O)CCCCN)[C@@H](C)O)[C@@H](C)O)C(=O)N[C@@H](CCCNC(=N)N)C(=O)N[C@H](C(=O)O)C(C)C [Peptide 12, AvaKPRP YTPRP TSHPR PIRV] (H-[Ava]KPRPYTPRPTSHPRPIRV-OH; N-terminus assumed)
10 | 6.3 (≈ 14.1 µg/mL) | CC[C@H](C)[C@H](NC(=O)[C@@H]1CCCN1C(=O)[C@H](CCCNC(=N)N)NC(=O)[C@@H]1CCCN1C(=O)[C@H](Cc1c[nH]cn1)NC(=O)[C@H](CO)NC(=O)[C@@H](NC(=O)[C@@H]1CCCN1C(=O)[C@H](CCCNC(=N)N)NC(=O)[C@@H]1CCCN1C(=O)[C@@H](NC(=O)[C@H](Cc1ccc(O)cc1)NC(=O)[C@@H]1CCCN1C(=O)[C@H](CCCNC(=N)N)NC(=O)[C@@H]1CCCN1C(=O)[C@H](CCCCN)NC(=O)CCCN)[C@@H](C)O)[C@@H](C)O)C(=O)N[C@@H](CCCNC(=N)N)C(=O)N[C@H](C(=O)O)C(C)C [Peptide 13, AbuKPRP YTPRP TSHPR PIRV] (H-[GABA]KPRPYTPRPTSHPRPIRV-OH; N-terminus assumed)
11 | 6.3 (≈ 14 µg/mL) | CC[C@H](C)[C@H](NC(=O)[C@@H]1CCCN1C(=O)[C@H](CCCNC(=N)N)NC(=O)[C@@H]1CCCN1C(=O)[C@H](Cc1c[nH]cn1)NC(=O)[C@H](CO)NC(=O)[C@@H](NC(=O)[C@@H]1CCCN1C(=O)[C@H](CCCNC(=N)N)NC(=O)[C@@H]1CCCN1C(=O)[C@@H](NC(=O)[C@H](Cc1ccc(O)cc1)NC(=O)[C@@H]1CCCN1C(=O)[C@H](CCCNC(=N)N)NC(=O)[C@@H]1CCCN1C(=O)[C@H](CCCCN)NC(=O)CNC)[C@@H](C)O)[C@@H](C)O)C(=O)N[C@@H](CCCNC(=N)N)C(=O)N[C@H](C(=O)O)C(C)C [Peptide 15, SarKPRP YTPRP TSHPR PIRV] (H-[Sar]KPRPYTPRPTSHPRPIRV-OH; N-terminus assumed)

— patent US20090312521A1 (priority 2004, published 2009)
